Results from publication PMC12250302, “Synthesis, Antimicrobial Activities, and Model of Action of Novel Tetralone Derivatives Containing Aminoguanidinium Moiety” (International Journal of Molecular Sciences, 2025).
In brackets after ≈: the same amount, converted by molar mass.

Assays:
P. aeruginosa ATCC 27853 = assay: MIC and MBC testing, broth microdilution; assay type: cell-based, Pseudomonas aeruginosa; details: Pseudomonas aeruginosa; for MIC: ATCC27853, 18 h, read-out: MIC; for MBC: ATCC27853, read-out: MBC
Method in brief: (§1)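 Controls comprised levofloxacin (positive) and 0.1% DMSO (negative). Compounds, serially halved in MH broth, met log-phase cells pre-diluted to 1 × 10^6 CFU/mL; after an 18 h, 37 °C incubation, absence of visible growth defined the MIC, triplicate per concentration.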

MRSA-1 = assay: MIC and MBC testing, broth microdilution; assay type: cell-based, Staphylococcus aureus; details: Staphylococcus aureus, MRSA-1; for MIC: 18 h, read-out: MIC; for MBC: read-out: MBC
Method in brief: (§2)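 Strains (clinical S. aureus LMY45, LMY46, LMY48; MRSA-1) grown to logarithmic phase, diluted to 1 × 10^6 CFU/mL and exposed 18 h at 37 °C to twofold serial compound dilutions in Mueller-Hinton broth, triplicates. Outputs are MIC and bactericidal concentration (MBC).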

[1] = tested on: clinical S. aureus isolate LMY45; assay: MIC and MBC testing, broth microdilution; assay type: cell-based, Staphylococcus aureus; details: Staphylococcus aureus, LMY45; for MIC: 18 h, read-out: MIC; for MBC: read-out: MBC
Method in brief: as §2

[2] = tested on: clinical S. aureus isolate LMY48; assay: MIC and MBC testing, broth microdilution; assay type: cell-based, Staphylococcus aureus; details: Staphylococcus aureus, LMY48; for MIC: 18 h, read-out: MIC; for MBC: read-out: MBC
Method in brief: as §2

[3] = tested on: clinical S. aureus isolate LMY46; assay: MIC and MBC testing, broth microdilution; assay type: cell-based, Staphylococcus aureus; details: Staphylococcus aureus, LMY46; for MIC: 18 h, read-out: MIC; for MBC: read-out: MBC
Method in brief: as §2

MRSA-2 = assay: MIC and MBC testing, broth microdilution; assay type: cell-based, Staphylococcus aureus; details: Staphylococcus aureus, MRSA-2; for MIC: 18 h, read-out: MIC; for MBC: read-out: MBC
Method in brief: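 Broth microdilution in MH broth; two-fold serial dilutions of DMSO-dissolved compound; inoculum 1 × 10^6 CFU/mL from log-phase culture; 37 °C, 18 h; triplicates; MBC also read.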

[4] = tested on: clinical S. aureus isolate LMY47; assay: MIC and MBC testing, broth microdilution; assay type: cell-based, Staphylococcus aureus; details: Staphylococcus aureus, LMY47; for MIC: 18 h, read-out: MIC; for MBC: read-out: MBC
Method in brief: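 Triplicate broth microdilution: MH broth, serial 2× dilution of compounds dissolved in DMSO, 1 × 10^6 CFU/mL bacteria grown to log phase, 18 h at 37 °C, followed by MBC determination.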

MRSA = assay: MIC testing, summary over MRSA strains; assay type: cell-based; details: Staphylococcus aureus; against MRSA
Procedure: (§3) The minimum inhibitory concentration (MIC) of all synthesized compounds was tested by the broth microdilution method. In brief, compounds dissolved in DMSO were diluted twice continuously in a 96-well plate with MH broth. The ESKAPE pathogens (E. coli ATCC 25922, S. aureus ATCC 29213, K. pneumoniae ATCC 700603, A. baumannii ATCC 19606, P. aeruginosa ATCC 27853, and E. faecium ATCC 35667), clinical S. aureus isolates (LMY45, LMY46, LMY47, and LMY48) and methicillin-resistant Staphylococcus aureus (MRSA-1 and MRSA-2) were cultured in MH broth to logarithmic growth phase and then diluted to 1 × 10^6 CFU/mL in MH broth. Subsequently, the diluted bacterial solution was mixed with the diluted compound solution in a 96-well plate and incubated at 37 °C for a duration of 18 h. The MIC of the compounds was recorded as the lowest concentration at which no visible growth was observed. […] Each concentration was replicated thrice.

[5] = tested on: K. pneumoniae ATCC 700603; assay: MIC and MBC testing, broth microdilution; assay type: cell-based, Klebsiella pneumoniae; details: Klebsiella pneumoniae; for MIC: ATCC700603, 18 h, read-out: MIC; for MBC: ATCC700603, read-out: MBC
Method in brief: as §1

S. aureus ATCC 29213 = assay: MIC and MBC testing, broth microdilution; assay type: cell-based, Staphylococcus aureus; details: Staphylococcus aureus, ATCC29213, S. aureus ATCC 29213; for MIC: 18 h, read-out: MIC; for MBC: read-out: MBC
Method in brief: as §1

E. coli ATCC 25922 = assay: MIC and MBC testing, broth microdilution; assay type: cell-based, Escherichia coli; details: Escherichia coli; for MIC: ATCC25922, 18 h, read-out: MIC; for MBC: ATCC25922, read-out: MBC
Method in brief: as §1

E. faecium ATCC 35667 = assay: MIC and MBC testing, broth microdilution; assay type: cell-based, Enterococcus faecium; details: Enterococcus faecium, ATCC35667, E. faecium ATCC 35667; for MIC: 18 h, read-out: MIC; for MBC: read-out: MBC
Method in brief: as §1

[6] = tested on: S. aureus, including MRSA; assay: MIC testing, summary over S. aureus strains; assay type: cell-based; details: Staphylococcus aureus
Procedure: as §3

A. baumannii ATCC 19606 = assay: MIC and MBC testing, broth microdilution; assay type: cell-based, Acinetobacter baumannii; details: Acinetobacter baumannii; for MIC: ATCC19606, 18 h, read-out: MIC; for MBC: ATCC19606, read-out: MBC
Method in brief: as §1

| MIC (P. aeruginosa ATCC 27853) [µg/mL] | MIC (MRSA-1) [µg/mL] | MIC [1] [µg/mL] | MIC [2] [µg/mL] | MIC [3] [µg/mL] | MIC (MRSA-2) [µg/mL] | MIC [4] [µg/mL] | MIC [5] [µg/mL] | MIC (S. aureus ATCC 29213) [µg/mL] | MIC (E. coli ATCC 25922) [µg/mL] | MIC (E. faecium ATCC 35667) [µg/mL] | SMILES | MBC (MRSA-1) [µg/mL] | MBC [1] [µg/mL] | MBC [2] [µg/mL] | MBC [3] [µg/mL] | MBC (MRSA-2) [µg/mL] | MBC [4] [µg/mL] | MBC [5] [µg/mL] | MBC (S. aureus ATCC 29213) [µg/mL] | MBC (E. coli ATCC 25922) [µg/mL] | further results |
| --- | --- | --- | --- | --- | --- | --- | --- | --- | --- | --- | --- | --- | --- | --- | --- | --- | --- | --- | --- | --- | --- |
| > 32 | 1 (≈ 2.58 µM) | 2 (≈ 5.16 µM) | 4 (≈ 10.3 µM) | 1 (≈ 2.58 µM) | 1 (≈ 2.58 µM) | 2 (≈ 5.16 µM) | 16 (≈ 41.3 µM) | 2 (≈ 5.16 µM) | 4 (≈ 10.3 µM) | 4 (≈ 10.3 µM) | [H]/N=C(\N)NN=C1CCCc2cc(OCc3ccc(Br)cc3)ccc21 [Compound 1S, (E)-2-(6-((4-bromobenzyl)oxy)-3,4-dihydronaphthalen-1(2H)-ylidene)hydrazine-1-carboximidamide] | 4 (≈ 10.3 µM) | 4 (≈ 10.3 µM) | 8 (≈ 20.7 µM) | 4 (≈ 10.3 µM) | 4 (≈ 10.3 µM) | 4 (≈ 10.3 µM) | 16 (≈ 41.3 µM) | 8 (≈ 20.7 µM) | 8 (≈ 20.7 µM) | MIC (MRSA): 1 to 2 µg/mL (≈ 2.58 to 5.16 µM); MBC (E. faecium ATCC 35667): 8 µg/mL (≈ 20.7 µM); MIC [6]: 0.5 to 4 µg/mL (≈ 1.29 to 10.3 µM); MIC (A. baumannii ATCC 19606): 8 µg/mL (≈ 20.7 µM); MBC (A. baumannii ATCC 19606): 16 µg/mL (≈ 41.3 µM) |
| 32 (≈ 112 µM) | 2 (≈ 6.98 µM) | 2 (≈ 6.98 µM) | 1 (≈ 3.49 µM) | 2 (≈ 6.98 µM) | 1 (≈ 3.49 µM) | 2 (≈ 6.98 µM) | 32 (≈ 112 µM) | 4 (≈ 14 µM) | 16 (≈ 55.9 µM) | 8 (≈ 27.9 µM) | [H]/N=C(\N)NN=C1CCCc2cc(OCC=C(C)C)ccc21 [Compound 2I, (E)-2-(6-((3-methylbut-2-en-1-yl)oxy)-3,4-dihydronaphthalen-1(2H)-ylidene)hydrazine-1-carboximidamide] | 16 (≈ 55.9 µM) | 4 (≈ 14 µM) | 2 (≈ 6.98 µM) | 2 (≈ 6.98 µM) | 2 (≈ 6.98 µM) | 8 (≈ 27.9 µM) | > 32 | 32 (≈ 112 µM) | 32 (≈ 112 µM) | MBC (P. aeruginosa ATCC 27853): 32 µg/mL (≈ 112 µM); MIC (MRSA): 1 to 2 µg/mL (≈ 3.49 to 6.98 µM); MBC (E. faecium ATCC 35667): 32 µg/mL (≈ 112 µM); MIC [6]: 0.5 to 4 µg/mL (≈ 1.75 to 14 µM); MIC (A. baumannii ATCC 19606): 16 µg/mL (≈ 55.9 µM); MBC (A. baumannii ATCC 19606): 32 µg/mL (≈ 112 µM) |
| 32 (≈ 98 µM) | 2 (≈ 6.13 µM) | 2 (≈ 6.13 µM) | 4 (≈ 12.3 µM) | 2 (≈ 6.13 µM) | 4 (≈ 12.3 µM) | 2 (≈ 6.13 µM) | 16 (≈ 49 µM) | 4 (≈ 12.3 µM) | 8 (≈ 24.5 µM) | 4 (≈ 12.3 µM) | [H]/N=C(\N)NN=C1CCCc2cc(OCc3ccc(F)cc3)ccc21 [Compound 1C, (E)-2-(6-((4-fluorobenzyl)oxy)-3,4-dihydronaphthalen-1(2H)-ylidene)hydrazine-1-carboximidamide] | 16 (≈ 49 µM) | 4 (≈ 12.3 µM) | 4 (≈ 12.3 µM) | 8 (≈ 24.5 µM) | 8 (≈ 24.5 µM) | 8 (≈ 24.5 µM) | 16 (≈ 49 µM) | 16 (≈ 49 µM) | 8 (≈ 24.5 µM) | MBC (P. aeruginosa ATCC 27853): 32 µg/mL (≈ 98 µM); MBC (E. faecium ATCC 35667): 16 µg/mL (≈ 49 µM); MIC (A. baumannii ATCC 19606): 8 µg/mL (≈ 24.5 µM); MBC (A. baumannii ATCC 19606): 8 µg/mL (≈ 24.5 µM) |

| SMILES | MIC (P. aeruginosa ATCC 27853) [µg/mL] | MIC (MRSA-1) [µg/mL] | MIC [1] [µg/mL] | MIC [2] [µg/mL] | MIC [3] [µg/mL] | MIC (MRSA-2) [µg/mL] | MIC [4] [µg/mL] | MIC [5] [µg/mL] | MIC (S. aureus ATCC 29213) [µg/mL] | MIC (E. coli ATCC 25922) [µg/mL] | MIC (E. faecium ATCC 35667) [µg/mL] | MBC (MRSA-1) [µg/mL] | MBC [1] [µg/mL] | MBC [2] [µg/mL] | MBC [3] [µg/mL] | MBC (MRSA-2) [µg/mL] | MBC [4] [µg/mL] | MBC [5] [µg/mL] | MBC (S. aureus ATCC 29213) [µg/mL] | MBC (E. coli ATCC 25922) [µg/mL] | further results |
| --- | --- | --- | --- | --- | --- | --- | --- | --- | --- | --- | --- | --- | --- | --- | --- | --- | --- | --- | --- | --- | --- |
| [H]/N=C(\N)NN=C1CCCc2cc(OCCCC)ccc21 [Compound 2A, (E)-2-(6-butoxy-3,4-dihydronaphthalen-1(2H)-ylidene)hydrazine-1-carboximidamide] | 32 (≈ 117 µM) | 2 (≈ 7.29 µM) | 2 (≈ 7.29 µM) | 1 (≈ 3.64 µM) | 2 (≈ 7.29 µM) | 1 (≈ 3.64 µM) | 2 (≈ 7.29 µM) | 16 (≈ 58.3 µM) | 4 (≈ 14.6 µM) | 16 (≈ 58.3 µM) | 8 (≈ 29.2 µM) | 2 (≈ 7.29 µM) | 4 (≈ 14.6 µM) | 2 (≈ 7.29 µM) | 4 (≈ 14.6 µM) | 2 (≈ 7.29 µM) | 2 (≈ 7.29 µM) | > 32 | > 32 | > 32 | MBC (P. aeruginosa ATCC 27853): 32 µg/mL (≈ 117 µM); MIC (MRSA): 1 to 2 µg/mL (≈ 3.64 to 7.29 µM); MBC (E. faecium ATCC 35667): 32 µg/mL (≈ 117 µM); MIC [6]: 0.5 to 4 µg/mL (≈ 1.82 to 14.6 µM); MIC (A. baumannii ATCC 19606): 8 µg/mL (≈ 29.2 µM); MBC (A. baumannii ATCC 19606): 16 µg/mL (≈ 58.3 µM) |
